Results as given in US11319321B2, “[1,2,4]triazolo[1,5-a]pyrimidine compounds as PDE2 inhibitors” (Janssen Pharmaceutica NV, priority 2016, dated 2022).
Where two headings read alike, the source gives them in different places.

Columns and labels:
[1] = biological target: T1, Human recombinant PDE2A (hPDE2A) (Homo sapiens, UniProt O00408); test: In vitro assay PDE2A (SPA, 3H-cGMP); format: biochemical
T1 construct: made in house; host or cells: Sf9 insect cells (baculovirus)
Experimental: Human recombinant PDE2A (hPDE2A) was expressed in Sf9 cells using a recombinant rPDE10A baculovirus construct. Cells were harvested after 48 h of infection and the hPDE2A protein was purified by metal chelate chromatography on Ni-sepharose 6FF. Tested compounds were dissolved and diluted in 100% DMSO to a concentration 100 fold of the final concentration in the assay. Compound dilutions (0.4 μl) were added in 384 well plates to 20 μl of incubation buffer (50 mM Tris pH 7.8, 8.3 mM MgCl2, 1.7 mM EGTA). 10 μl of hPDE2A enzyme in incubation buffer was added and the reaction was started by addition of 10 μl substrate to a final concentration of 10 μM cGMP and 0.01 μCi ^3H-cGMP. The reaction was incubated for 45 minutes at room temperature. […] After sedimentation of the beads during 30 minutes the radioactivity was measured in a Perkin Elmer Topcount scintillation counter and results were expressed as cpm. For blanc values the enzyme was omitted from the reaction and replaced by incubation buffer. Control values were obtained by addition of a final concentration of 1% DMSO instead of compound.

hPDE3B = test: In vitro assay PDE3 (SPA, 3H-cAMP); format: biochemical, human; conditions: 0.4 μM cAMP substrate; for hPDE3B Emax: in % (unit assumed)
hPDE10A2 = hPDE10A2 (Homo sapiens, UniProt Q9Y233); test: biochemical; conditions: 60 nM cAMP substrate; for IC50: read-out: hPDE10A2 or rPDE10A2 pIC50 (converted); for Emax: read-out: hPDE10A2 or rPDE10A2 Emax, human clone
Experimental: Rat recombinant PDE10A (rPDE10A2) was expressed in Sf9 cells using a recombinant rPDE10A baculovirus construct. Cells were harvested after 48 h of infection and the rPDE10A protein was purified by metal chelate chromatography on Ni-sepharose 6FF. Tested compounds were dissolved and diluted in 100% DMSO to a concentration 100 fold of the final concentration in the assay. Human recombinant PDE10A ([…]) was expressed in Sf9 cells using a recombinant hPDE10A baculovirus that was made and amplified in house. Cells were harvested after 72 h of infection and the hPDE10A protein was purified by metal chelate chromatography on Ni-sepharose. Compound dilutions (0.4 μl) were added in 384 well plates to 20 μl of incubation buffer (50 mM Tris pH 7.8, 8.3 mM MgCl2, 1.7 mM EGTA). 10 μl of rPDE10A or hPDE10A enzyme in incubation buffer was added and the reaction was started by addition of 10 μl substrate to a final concentration of 60 nM cAMP and […] ^3H-cAMP. The reaction was incubated for 60 minutes at room temperature. After incubation, the reaction was stopped with 20 μl of stop solution consisting of 17.8 mg/ml PDE SPA (scintillation proximity assay) beads. After sedimentation of the beads during 30 minutes the radioactivity was measured in a Perkin Elmer Topcount scintillation counter and results were expressed as cpm. For blanc values the enzyme was omitted from the reaction and replaced by incubation buffer. Control values were obtained by addition of a final concentration of 1% DMSO instead of compound. A best fit curve is fitted by a minimum sum of squares method to the plot of % of control value substracted with blanc value versus compound concentration and the half maximal inhibitory concentration (IC50) value is derived from this curve.

PDE2A = biological target: T2, PDE2A (Rattus norvegicus, UniProt Q01062); test: PDE2 occupancy by ex-vivo autoradiography with [3H]B-17a; format: in vivo; conditions: read-out: PDE2 occupancy at 10 mg/kg
T2 construct: Twenty μm-thick striatal sections were cut; from tissue; host or cells: rat brain, striatal sections
T2 sequence (Q01062 1-928): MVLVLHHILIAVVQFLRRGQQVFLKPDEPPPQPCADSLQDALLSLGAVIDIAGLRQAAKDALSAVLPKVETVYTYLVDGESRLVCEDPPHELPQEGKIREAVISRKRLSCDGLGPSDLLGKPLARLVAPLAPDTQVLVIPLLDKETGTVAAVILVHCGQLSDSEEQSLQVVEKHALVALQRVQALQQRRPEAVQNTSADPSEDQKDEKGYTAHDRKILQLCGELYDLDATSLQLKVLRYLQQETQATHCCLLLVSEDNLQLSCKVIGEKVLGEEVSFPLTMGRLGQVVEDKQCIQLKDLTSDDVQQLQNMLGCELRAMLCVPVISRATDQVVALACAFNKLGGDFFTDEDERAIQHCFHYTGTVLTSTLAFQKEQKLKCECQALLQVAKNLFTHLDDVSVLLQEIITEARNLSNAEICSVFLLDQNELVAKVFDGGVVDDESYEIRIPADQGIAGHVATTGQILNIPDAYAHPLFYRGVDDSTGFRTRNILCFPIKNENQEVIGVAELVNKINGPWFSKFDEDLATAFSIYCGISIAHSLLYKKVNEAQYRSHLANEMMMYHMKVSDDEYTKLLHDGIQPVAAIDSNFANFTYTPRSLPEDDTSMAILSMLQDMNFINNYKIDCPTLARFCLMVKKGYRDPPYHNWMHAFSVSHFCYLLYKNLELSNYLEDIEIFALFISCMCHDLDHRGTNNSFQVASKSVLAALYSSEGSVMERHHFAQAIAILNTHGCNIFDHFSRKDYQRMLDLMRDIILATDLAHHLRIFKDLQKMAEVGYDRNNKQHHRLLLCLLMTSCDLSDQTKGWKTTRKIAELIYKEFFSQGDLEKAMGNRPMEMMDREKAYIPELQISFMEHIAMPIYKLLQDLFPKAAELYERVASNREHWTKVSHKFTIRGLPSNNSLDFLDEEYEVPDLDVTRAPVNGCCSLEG
Experimental: Brains were immediately removed from the skull and rapidly frozen in dry-ice cooled 2-methylbutane (−40° C.).
After thawing, sections were dried under a cold stream of air and incubated for one minute with 30 nM [^3H]B-17a in Tris-HCl (50 mM, pH7.4) containing 0.3% BSA. Brain sections from drug-treated and vehicle-treated animals were incubated in parallel. […] After incubation, the excess of [^3H]B-17a was washed off in ice-cold buffer 2 times 10 minutes, followed by a quick dip in distilled water. The sections were then dried under a stream of cold air.
Brain sections were loaded in a […] (Biospace, Paris) for 4 h and radioactivity emerging from delineated brain area was quantified using the Beta vision program (Biospace, Paris). Specific binding was determined as the difference between total binding in the striatum and non-specific binding in the cerebellum. Percentage receptor occupancy of the drug administered to the animal corresponded to 100% minus the percentage receptor labeled in the treated animal. For the determination of ED50-values, the percentage of receptor occupancy was plotted against dose and the sigmoidal log dose-effect curve of best fit was calculated by non-linear regression analysis, using the GraphPad Prism program.

[2] = 10 μM cGMP substrate, read-out: hPDE2A pIC50 (converted)
[3] = hPDE2A pIC50, 10 μM cGMP substrate

T1 sequence (O00408 whole entry): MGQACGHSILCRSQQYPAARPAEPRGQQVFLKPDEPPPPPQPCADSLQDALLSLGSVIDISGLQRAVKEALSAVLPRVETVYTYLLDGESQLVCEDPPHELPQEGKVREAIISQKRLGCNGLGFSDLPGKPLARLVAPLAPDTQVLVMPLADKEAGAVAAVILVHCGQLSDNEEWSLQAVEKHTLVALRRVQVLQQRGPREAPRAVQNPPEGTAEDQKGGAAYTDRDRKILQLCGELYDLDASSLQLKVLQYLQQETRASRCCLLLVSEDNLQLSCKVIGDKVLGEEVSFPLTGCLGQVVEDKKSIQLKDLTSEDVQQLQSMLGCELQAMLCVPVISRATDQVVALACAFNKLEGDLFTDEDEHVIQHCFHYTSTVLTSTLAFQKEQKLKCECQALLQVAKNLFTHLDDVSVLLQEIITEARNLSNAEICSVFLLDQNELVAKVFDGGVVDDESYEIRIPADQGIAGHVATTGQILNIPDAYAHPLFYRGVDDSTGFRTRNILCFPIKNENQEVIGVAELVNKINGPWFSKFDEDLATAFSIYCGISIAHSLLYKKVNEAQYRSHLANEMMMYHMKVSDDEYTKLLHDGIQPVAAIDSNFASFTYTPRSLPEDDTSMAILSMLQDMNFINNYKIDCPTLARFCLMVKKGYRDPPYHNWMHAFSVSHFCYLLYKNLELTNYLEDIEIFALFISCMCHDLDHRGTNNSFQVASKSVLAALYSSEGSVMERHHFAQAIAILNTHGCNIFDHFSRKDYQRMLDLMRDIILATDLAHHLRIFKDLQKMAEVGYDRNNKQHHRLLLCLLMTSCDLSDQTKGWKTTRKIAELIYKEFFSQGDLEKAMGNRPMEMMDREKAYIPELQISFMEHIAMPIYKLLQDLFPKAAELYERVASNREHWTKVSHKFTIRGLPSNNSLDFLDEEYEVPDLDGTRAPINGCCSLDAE
Sequence of hPDE10A2 (Q9Y233 267-1055): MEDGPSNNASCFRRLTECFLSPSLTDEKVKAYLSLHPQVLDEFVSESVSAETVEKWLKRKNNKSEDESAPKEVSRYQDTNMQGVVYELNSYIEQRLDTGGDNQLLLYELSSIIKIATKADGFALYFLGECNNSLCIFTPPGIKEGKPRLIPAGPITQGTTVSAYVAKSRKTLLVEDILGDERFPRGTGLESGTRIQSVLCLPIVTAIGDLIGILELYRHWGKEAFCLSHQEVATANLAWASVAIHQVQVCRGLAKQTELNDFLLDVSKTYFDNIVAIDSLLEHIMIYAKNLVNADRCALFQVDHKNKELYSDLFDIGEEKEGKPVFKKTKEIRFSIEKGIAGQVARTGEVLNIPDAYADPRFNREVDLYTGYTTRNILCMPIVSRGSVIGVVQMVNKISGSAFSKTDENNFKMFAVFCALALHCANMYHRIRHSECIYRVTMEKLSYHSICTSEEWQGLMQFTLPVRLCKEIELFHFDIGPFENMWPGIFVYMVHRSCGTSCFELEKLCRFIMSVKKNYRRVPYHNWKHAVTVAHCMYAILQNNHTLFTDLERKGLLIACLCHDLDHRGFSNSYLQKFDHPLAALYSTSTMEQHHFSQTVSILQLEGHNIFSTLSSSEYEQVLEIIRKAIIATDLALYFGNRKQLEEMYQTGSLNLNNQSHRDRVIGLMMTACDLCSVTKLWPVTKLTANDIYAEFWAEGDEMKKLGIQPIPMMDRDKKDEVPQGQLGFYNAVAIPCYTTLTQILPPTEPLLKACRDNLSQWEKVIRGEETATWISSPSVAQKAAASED

Row | Compound | Emax ([1]; 10 μM cGMP substrate) [%] | IC50 [1, 2] [nM] | hPDE3B pIC50 (hPDE3B) | hPDE3B Emax (hPDE3B) | IC50 (hPDE10A2; human clone) [nM] | Emax (hPDE10A2) [%] | receptor occupancy at 10 mg/kg (PDE2A; po) [%] | hPDE2A Emax ([1]; 10 μM cGMP substrate) | IC50 [1, 3] [nM] | hPDE10A2 or rPDE10A2 Emax (hPDE10A2; human clone) | receptor occupancy at 10 mg/kg (PDE2A; male Wistar rats, 10 mg/kg SC (subcutaneous), striatum, percentage occupancy) [%] | IC50 [1] [nM]
1 | Cc1cc([C@@H](C)N2CC[C@@H](C)[C@H](c3cc(C(F)F)nc4ncnn34)C2)cc(C2CC2)n1 (relative stereo) [Compound 3] | 100 | 13.5 | <5 | 19 | 1260 | 91 | 21 | – | – | – | – | –
2 | Cc1cc(C(C)N2CC[C@@H](C)[C@H](c3cc(C(F)F)nc4ncnn34)C2)cc(C)n1 (single isomer, unassigned) [Compound 1b, 5-(difluoromethyl)-7-[(3 S,4R)-1-[(1S*)-1-(2,6-dimethyl-4-pyridyl)ethyl]-4-methyl-3-piperidyl]-[1,2,4]triazolo[1,5-a]pyrimidine] | – | – | <5 | 19 | 2880 | – | – | 100 | 11.7 | 80 | 42 | –
3 | C[C@H]1CCN(Cc2ccc(F)c(F)c2)C[C@@H]1c1cc(C(F)F)nc2ncnn12.Cl [Compound 41] | 33 | 1950 | <5 | 20 | > 10000 | 15 | – | – | – | – | – | –
4 | C[C@@H]1CCN(Cc2ccc(F)c(F)c2)C[C@@H]1c1cc(C(F)F)nc2ncnn12 [Compound 42] | 22 | 3390 | <5 | 19 | > 10000 | 45 | – | – | – | – | – | –
5 | Cc1csc(CN2CC[C@@H](C)[C@H](c3cc(C(F)F)nc4ncnn34)C2)c1.Cl [Compound 43] | 77 | – | <5 | 0 | 6920 | 44 | – | – | 347 | – | – | –
6 | COc1ccc(CN2CC[C@@H](C)[C@H](c3cc(C(F)F)nc4ncnn34)C2)c(OC)c1.Cl [Compound 45] | 49 | – | <5 | 6 | > 10000 | 37 | – | – | 955 | – | – | –
7 | COc1ccc(CN2CC[C@H](C)[C@@H](c3cc(C(F)F)nc4ncnn34)C2)c(OC)c1.Cl [Compound 46] | 9 | – | <5 | 17 | > 10000 | -6 | – | – | 7240 | – | – | –
8 | COc1ccc(CN2CC[C@@H](C)[C@@H](c3cc(C(F)F)nc4ncnn34)C2)c(OC)c1 [Compound 47] | 25 | – | <5 | 27 | > 10000 | 37 | – | – | ~3470 | – | – | –
9 | C[C@@H]1CCN(Cc2nn(C)c3ccccc23)C[C@H]1c1cc(C(F)F)nc2ncnn12 [Compound 48] | 96 | – | <5 | 23 | > 10000 | 37 | – | – | 977 | – | – | –
10 | Cc1cc(CN2CCC(C)C(F)(c3cc(C(F)F)nc4ncnn34)C2)cc(C)n1 (centres unmarked) [Compound 51] | 91 | – | 5.11 | 67 | > 10000 | 28 | – | – | 2950 | – | – | –
11 | Cc1nn(C)cc1CN1CC[C@@H](C)[C@H](c2cc(C(F)F)nc3ncnn23)C1.Cl [Compound 52] | 31 | – | <5 | 1 | > 10000 | 9 | – | – | ~2340 | – | – | –
12 | C[C@H]1CCN(Cc2cc3ccccc3o2)C[C@@H]1c1cc(C(F)F)nc2ncnn12.Cl [Compound 55] | 25 | – | <5 | 40 | > 10000 | 12 | – | – | 2240 | – | – | –
13 | Cl.FC(F)Oc1cccc(CN2[C@H]3CC[C@H](c4cc(C(F)F)nc5ncnn45)[C@@H]2CC3)c1 [Compound 56] | 97 | – | <5 | 26 | > 10000 | 43 | – | – | – | – | – | 525
14 | Cl.FC(F)c1cc([C@H]2CC[C@H]3CC[C@@H]2N3Cc2ccc(Cl)c(Cl)c2)n2ncnc2n1 [Compound 57] | 100 | – | <5 | 35 | 7940 | 58 | – | – | – | – | – | 105
